According to ChEMBL document CHEMBL5344406, “1,2,3-Triazole-containing hybrids with potential antibacterial activity against ESKAPE pathogens” (2022):
Values after ≈ are worked out from the molar mass of the structure shown. Each block holds one compound with its values, some of them ahead of it.

Key:
Assay type in all cases: functional
[1] = system: Staphylococcus aureus; test: Antibacterial activity against methicillin-resistant Staphylococcus aureus ATCC 43300 assessed as bacterial growth inhibition by standard dilution assay
[2] = system: Staphylococcus aureus; test: Antibacterial activity against erythromycin-susceptible Staphylococcus aureus ATCC 25923 assessed as bacterial growth inhibition by standard dilution assay
[3] = system: Staphylococcus aureus; test: Antibacterial activity against penicillin-resistant Staphylococcus aureus ATCC 31007 assessed as bacterial growth inhibition by standard dilution assay
[4] = system: Escherichia coli; test: Antibacterial activity against Escherichia coli ATCC 25922 assessed as bacterial growth inhibition by broth microdilution method
[5] = system: Staphylococcus aureus; test: Antibacterial activity against Staphylococcus aureus ATCC 25923 assessed as bacterial growth inhibition by broth microdilution method
[6] = system: Staphylococcus aureus; test: Antibacterial activity against Staphylococcus aureus ATCC 29213 assessed as bacterial growth inhibition incubated for 24 hrs by CLSI based broth dilution method
[7] = system: Staphylococcus aureus; test: Antibacterial activity against Staphylococcus aureus clinical isolate AD3 assessed as bacterial growth inhibition incubated for 24 hrs by CLSI based broth dilution method
[8] = system: Staphylococcus aureus; test: Antibacterial activity against Staphylococcus aureus clinical isolate AD3 assessed as bacterial growth inhibition incubated for 24 hrs by broth microdilution method
[9] = system: Staphylococcus aureus; test: Antibacterial activity against Staphylococcus aureus ATCC 43300 assessed as bacterial growth inhibition incubated for 24 hrs by broth microdilution method
[10] = system: Staphylococcus aureus; test: Antibacterial activity against Staphylococcus aureus ATCC 43300 assessed as bacterial growth inhibition incubated for 24 hrs by CLSI based broth dilution method
[11] = system: Staphylococcus aureus; test: Antibacterial activity against Staphylococcus aureus ATCC 29213 assessed as bacterial growth inhibition incubated for 24 hrs by broth microdilution method
[12] = system: Staphylococcus aureus; test: Antibacterial activity against Staphylococcus aureus clinical isolate 144 assessed as bacterial growth inhibition incubated for 24 hrs by broth microdilution method
[13] = system: Staphylococcus aureus; test: Antibacterial activity against Staphylococcus aureus clinical isolate 144 assessed as bacterial growth inhibition incubated for 24 hrs by CLSI based broth dilution method
[14] = system: Klebsiella pneumoniae; test: Antibacterial activity against erythromycin-resistant Klebsiella pneumoniae ATCC 700603 assessed as bacterial growth inhibition by standard dilution assay
[15] = system: Staphylococcus aureus; test: Antibacterial activity against erythromycin-resistant Staphylococcus aureus clinical isolate assessed as bacterial growth inhibition by standard dilution assay
[16] = system: Staphylococcus aureus; test: Potency index, ratio of Azithromycin MIC to test compound MIC for antibacterial activity against erythromycin-susceptible Staphylococcus aureus ATCC 25923 assessed as bacterial growth inhibition by standard dilution assay
[17] = system: Staphylococcus aureus; test: Potency index, ratio of Clarithromycin MIC to test compound MIC for antibacterial activity against erythromycin-susceptible Staphylococcus aureus ATCC 25923 assessed as bacterial growth inhibition by standard dilution assay
[18] = system: Staphylococcus aureus; test: Antibacterial activity against Staphylococcus aureus 209p ATCC 6538P assessed as bacterial growth inhibition incubated for 1 to 2 days by serial dilution method; details: time 1-2 day
[19] = system: Staphylococcus aureus; test: Antibacterial activity against Staphylococcus aureus assessed as bacterial growth inhibition by CLSI based broth microdilution method
[20] = system: Pseudomonas aeruginosa; test: Antibacterial activity against Pseudomonas aeruginosa assessed as bacterial growth inhibition by CLSI based broth microdilution method
[21] = system: Escherichia coli; test: Antibacterial activity against Escherichia coli assessed as bacterial growth inhibition by CLSI based broth microdilution method
[22] = system: Staphylococcus aureus; test: Antibacterial activity against penicillin-resistant Staphylococcus aureus ATCC 31007 assessed as bacterial growth inhibition incubated for 24 hrs by CLSI based broth microdilution method
[23] = system: Streptococcus pneumoniae; test: Antibacterial activity against erythromycin-resistant Streptococcus pneumoniae AB11 expressing ermB/mefA assessed as bacterial growth inhibition incubated for 24 hrs by CLSI based broth microdilution method
[24] = system: Staphylococcus aureus; test: Antibacterial activity against methicillin-resistant Staphylococcus aureus ATCC 43300 assessed as bacterial growth inhibition incubated for 24 hrs by CLSI based broth microdilution method
[25] = system: Streptococcus pneumoniae; test: Antibacterial activity against erythromycin-resistant Streptococcus pneumoniae B1 expressing ermB assessed as bacterial growth inhibition incubated for 24 hrs by CLSI based broth microdilution method
[26] = system: Streptococcus pyogenes; test: Antibacterial activity against erythromycin-resistant Streptococcus pyogenes clinical isolate 2 assessed as bacterial growth inhibition incubated for 24 hrs by CLSI based broth microdilution method
[27] = system: Bacillus subtilis; test: Antibacterial activity against Bacillus subtilis assessed as bacterial growth inhibition by broth microdilution method
[28] = system: Pseudomonas aeruginosa; test: Antibacterial activity against Pseudomonas aeruginosa assessed as bacterial growth inhibition by broth microdilution method

Compound: CC[C@H]1OC(=O)[C@H](C)[C@@H](O[C@H]2C[C@@](C)(OC)[C@@H](O)[C@H](C)O2)[C@H](C)[C@@H](O[C@@H]2O[C@H](C)C[C@H](N(C)C)[C@H]2O)[C@](C)(OC)C[C@@H](C)C(=O)[C@H](C)[C@@H](O)[C@]1(C)O [CLARITHROMYCIN]
MIC [1]: > 128 µg/mL
MIC [2]: > 128 µg/mL
MIC [3]: > 128 µg/mL

Compound: C=C[C@]1(C)C[C@@H](OC(=O)CO)C2(C)[C@H](C)CCC3(CCC(=O)[C@H]32)[C@@H](C)[C@@H]1O (some centres not stated)
MIC [6]: 2 µg/mL (≈ 5.28 µM)
MIC [7]: 2 µg/mL (≈ 5.28 µM)
MIC [8]: 2 µg/mL (≈ 5.28 µM)
MIC [9]: 2 µg/mL (≈ 5.28 µM)
MIC [10]: 2 µg/mL (≈ 5.28 µM)
MIC [11]: 2 µg/mL (≈ 5.28 µM)
MIC [12]: 2 µg/mL (≈ 5.28 µM)
MIC [13]: 2 µg/mL (≈ 5.28 µM)

Compound: CCCCc1ccc(-c2cn(CC(=O)NNC(=O)O[C@H]3C[C@H](C)[C@@H](O[C@@H]4[C@H](C)[C@@H](O[C@H]5O[C@@H](C)C[C@@H](N(C)C)[C@@H]5O)[C@@](C)(O)C[C@@H](C)CN(C)[C@H](C)[C@H]5OC(=O)O[C@]5(C)[C@H](CC)OC(=O)[C@@H]4C)C[C@@]3(C)OC)nn2)cc1
MIC [14]: ≥ 128 µg/mL
MIC [1]: 2 µg/mL (≈ 1.87 µM)
MIC [15]: ≥ 128 µg/mL
MIC [2]: 2 µg/mL (≈ 1.87 µM)
Ratio [16]: >32
MIC [3]: 2 µg/mL (≈ 1.87 µM)
Ratio [17]: >32

Compound: CCCCCc1ccc(-c2cn(CC(=O)NNC(=O)O[C@H]3[C@H](C)[C@@H](O[C@H]4O[C@@H](C)C[C@@H](N(C)C)[C@@H]4O)[C@](C)(O)C[C@@H](C)CN(C)[C@H](C)C4OC(=O)O[C@@]4(C)[C@@H](CC)OC(=O)[C@@H]3C)nn2)cc1 (some centres not stated)
MIC [22]: 4 µg/mL (≈ 4.3 µM)
MIC [23]: 4 µg/mL (≈ 4.3 µM)
MIC [24]: 4 µg/mL (≈ 4.3 µM)
MIC [25]: 4 µg/mL (≈ 4.3 µM)
MIC [26]: 4 µg/mL (≈ 4.3 µM)

Compound: CC[C@H]1OC(=O)[C@H](C)[C@@H](O[C@H]2C[C@@](C)(OC)[C@@H](O)[C@H](C)O2)[C@H](C)[C@@H](O[C@@H]2O[C@H](C)C[C@H](N(C)C)[C@H]2O)[C@](C)(O)C[C@@H](C)CN(C)[C@H](C)[C@@H](O)[C@]1(C)O [AZITHROMYCIN]
MIC [1]: > 128 µg/mL
MIC [22]: > 256 µg/mL
MIC [2]: > 128 µg/mL
MIC [23]: > 256 µg/mL
MIC [3]: > 128 µg/mL
MIC [24]: > 256 µg/mL
MIC [25]: > 256 µg/mL
MIC [26]: > 256 µg/mL

Compound: CCCCCc1ccc(-c2cn(CCCN3CCOC(=O)[C@H](C)[C@@H](O[C@H]4C[C@@](C)(OC)[C@@H](O)[C@H](C)O4)[C@H](C)[C@@H](O[C@H]4O[C@@H](C)C[C@@H](N(C)C)[C@@H]4O)[C@](C)(OC)C[C@@H](C)[C@H](O)[C@H](C)C3)nn2)cc1
MIC [22]: 4 µg/mL (≈ 4.23 µM)
MIC [23]: 4 µg/mL (≈ 4.23 µM)
MIC [24]: 4 µg/mL (≈ 4.23 µM)
MIC [25]: 4 µg/mL (≈ 4.23 µM)
MIC [26]: 4 µg/mL (≈ 4.23 µM)

Compound: CCCCCc1ccc(-c2cn(CC(=O)NNC(=O)O[C@H]3C[C@H](C)[C@@H](O[C@@H]4[C@H](C)[C@@H](O[C@H]5O[C@@H](C)C[C@@H](N(C)C)[C@@H]5O)[C@@](C)(O)C[C@@H](C)CN(C)[C@H](C)[C@H]5OC(=O)O[C@]5(C)[C@H](CC)OC(=O)[C@@H]4C)C[C@@]3(C)OC)nn2)cc1
MIC [14]: ≥ 128 µg/mL
MIC [1]: 2 µg/mL (≈ 1.84 µM)
MIC [15]: ≥ 128 µg/mL
MIC [2]: 2 µg/mL (≈ 1.84 µM)
Ratio [16]: >32
MIC [3]: 2 µg/mL (≈ 1.84 µM)
Ratio [17]: >32

The remaining lines, values ahead:

MIC [4]: 6.5 µg/mL (≈ 16.9 µM)
MIC [5]: 6.5 µg/mL (≈ 16.9 µM)
Compound: Cc1ccc2c(c1)C=C(c1nnn(Cc3cn(Cc4ccccc4)nn3)n1)CO2

MIC [18]: 0.97 µg/mL (≈ 1.75 µM)
Compound: CO/N=C(\C(=O)N[C@@H]1C(=O)N2C(C(=O)O)=C(CSc3nc(=O)c(O)nn3C)CS[C@H]12)c1csc(N)n1 [CEFTRIAXONE]

MIC [19]: 4 µg/mL (≈ 7.35 µM)
MIC [20]: 4 µg/mL (≈ 7.35 µM)
MIC [21]: 4 µg/mL (≈ 7.35 µM)
Compound: O=C(N/N=C/c1cn(-c2ccccc2)nc1-c1ccc(Cl)cc1)c1cccc(-n2cc(-c3ccccc3)nn2)c1

MIC [6]: 1 µg/mL (≈ 1.31 µM)
MIC [7]: 1 µg/mL (≈ 1.31 µM)
MIC [10]: 1 µg/mL (≈ 1.31 µM)
MIC [13]: 1 µg/mL (≈ 1.31 µM)
Compound: C=C[C@]1(C)C[C@@H](OC(=O)CN2CCN(C(=O)Cn3cc(CN4CCN(c5ccc(Cl)cc5)CC4)nn3)CC2)[C@@]2(C)[C@@H]3C(=O)CC[C@@]3(CC[C@@H]2C)[C@@H](C)[C@@H]1O

MIC [19]: 4 µg/mL (≈ 7.85 µM)
MIC [20]: 4 µg/mL (≈ 7.85 µM)
MIC [21]: 4 µg/mL (≈ 7.85 µM)
Compound: O=C(N/N=C/c1cn(-c2ccccc2)nc1-c1ccccc1)c1cccc(-n2cc(-c3ccccc3)nn2)c1

MIC [8]: 0.5 µg/mL (≈ 0.771 µM)
MIC [9]: 0.5 µg/mL (≈ 0.771 µM)
MIC [11]: 0.5 µg/mL (≈ 0.771 µM)
MIC [12]: 0.5 µg/mL (≈ 0.771 µM)
Compound: C=C[C@]1(C)C[C@@H](OC(=O)Cn2cc(CN3CCN(c4ccc([N+](=O)[O-])cc4)CC3)nn2)[C@@]2(C)[C@@H]3C(=O)CC[C@@]3(CC[C@@H]2C)[C@@H](C)[C@@H]1O

MIC [27]: 1.25 µg/mL (≈ 3.62 µM)
MIC [28]: 1.25 µg/mL (≈ 3.62 µM)
Compound: C=CCCCCC1CC(=O)N1Cc1cn(-c2cccc(Cl)c2)nn1 (configuration not stated)
